According to PubChem BioAssay (NCI):
Where “and” joins values, the source holds several entries; their conditions need not be identical. Identical values can stand only once.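 Values below derive from 48-hour exposures of cells grown in 96-well plates, with endpoints linearly interpolated between the two concentrations bracketing the appropriate inhibition level. GI50: concentration for 50% inhibition of growth. TGI is the concentration that stops growth completely.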 Where a SMILES comes first, the peptide text is derived from it. [ ]: non-standard residue; d: D form. The star is where a group is joined. ξ: configuration not given here. NMeN = CN[C@@H](CC(N)=O)C(=O)O; NMeV = CN[C@H](C(=O)O)C(C)C; ξNMeV = CNC(C(=O)O)C(C)C; Boc = CC(C)(C)OC(=O)*; ξNMeA = CNC(C)C(=O)O

Legend:
Assay in all cases: NCI tumour cell line growth inhibition, 48 h
SK-MEL-5 melanoma = tested on: SK-MEL-5 melanoma
HCT-15 colon = tested on: HCT-15 colon
HCC-2998 colon = tested on: HCC-2998 colon
SF-539 CNS = tested on: SF-539 CNS
NCI-H522 lung = tested on: NCI-H522 lung
COLO 205 colon = tested on: COLO 205 colon
NCI-H226 lung = tested on: NCI-H226 lung
HCT-116 colon = tested on: HCT-116 colon
HOP-92 NSCLC = tested on: HOP-92 NSCLC
SW-620 colon = tested on: SW-620 colon

## CCOC(=O)NC(=O)c1cn(CCCOC(=O)CCCCCCCCCCC(=O)OCCCn2cc(C(=O)NC(=O)OCC)c(=O)n(C)c2=O)c(=O)n(C)c1=O
SK-MEL-5 melanoma
  TGI: > 100 µM
HCT-15 colon
  TGI: > 100 µM
HCC-2998 colon
  TGI: > 100 µM
SF-539 CNS
  TGI: > 100 µM
NCI-H522 lung
  TGI: > 100 µM
COLO 205 colon
  TGI: > 100 µM
NCI-H226 lung
  TGI: > 100 µM
HCT-116 colon
  TGI: > 100 µM
HOP-92 NSCLC
  TGI: > 100 µM
SW-620 colon
  TGI: > 100 µM

## NC(=N\N=C/c1cccc([N+](=O)[O-])c1)/C(N)=N\N=C/c1cccc([N+](=O)[O-])c1
SK-MEL-5 melanoma
  GI50: > 100 µM
  TGI: > 100 µM
HCT-15 colon
  GI50: > 100 µM
  TGI: > 100 µM
HCC-2998 colon
  GI50: > 100 µM
  TGI: > 100 µM
SF-539 CNS
  GI50: > 100 µM
  TGI: > 100 µM
NCI-H522 lung
  GI50: > 100 µM
  TGI: > 100 µM
COLO 205 colon
  GI50: > 100 µM
  TGI: > 100 µM
NCI-H226 lung
  GI50: > 100 µM
  TGI: > 100 µM
HCT-116 colon
  GI50: > 100 µM
  TGI: > 100 µM
HOP-92 NSCLC
  GI50: > 100 µM
  TGI: > 100 µM
SW-620 colon
  GI50: > 100 µM
  TGI: > 100 µM

## O=C(CC12CC3CC(CC(C3)C1)C2)NCCOCCOCCOCCNC(=O)c1cc2c(o1)C(=O)c1ccccc1C2=O
SK-MEL-5 melanoma
  GI50: 0.181 µM
  TGI: 0.343 µM
HCT-15 colon
  GI50: 1.43 µM
  TGI: 3.31 µM
HCC-2998 colon
  GI50: 1.89 µM
  TGI: 3.6 µM
SF-539 CNS
  GI50: 1.44 µM
  TGI: 2.78 µM
NCI-H522 lung
  GI50: 1.54 µM
  TGI: 3.51 µM
COLO 205 colon
  GI50: 1.63 µM
  TGI: 3.33 µM
NCI-H226 lung
  GI50: 1.75 µM
  TGI: 4 µM
HCT-116 colon
  GI50: 1.87 µM
  TGI: 6.33 µM
HOP-92 NSCLC
  GI50: 2.45 µM
  TGI: 7.3 µM
SW-620 colon
  GI50: 1.68 µM
  TGI: 4.61 µM

## O=C1NC(=S)NC(=O)C1=Cc1cccc2cc3ccccc3cc12
SK-MEL-5 melanoma
  TGI: 5.23 µM
HCT-15 colon
  TGI: 4.07 µM
HCC-2998 colon
  TGI: 3.89 µM
SF-539 CNS
  TGI: 3.1 µM
NCI-H522 lung
  TGI: 4.36 µM
COLO 205 colon
  TGI: 3.7 µM
NCI-H226 lung
  TGI: 4.62 µM
HCT-116 colon
  TGI: 3.74 µM
HOP-92 NSCLC
  TGI: 3.76 µM
SW-620 colon
  TGI: > 25.2 µM

## C=CCN(CC=C)C(=O)c1cc(C)nc2c1c(=O)n(-c1ccccc1)c(=O)n2CC(O)CN1CCN(c2ncccn2)CC1 (configuration not stated)
SK-MEL-5 melanoma
  GI50: > 100 µM
  TGI: > 100 µM
HCT-15 colon
  GI50: > 100 µM
  TGI: > 100 µM
HCC-2998 colon
  GI50: > 100 µM
  TGI: > 100 µM
SF-539 CNS
  GI50: > 100 µM
  TGI: > 100 µM
NCI-H522 lung
  GI50: > 100 µM
  TGI: > 100 µM
COLO 205 colon
  GI50: > 100 µM
  TGI: > 100 µM
NCI-H226 lung
  GI50: > 100 µM
  TGI: > 100 µM
HCT-116 colon
  GI50: > 100 µM
  TGI: > 100 µM
HOP-92 NSCLC
  GI50: > 100 µM
  TGI: > 100 µM
SW-620 colon
  GI50: > 100 µM
  TGI: > 100 µM

## Nc1nc(=S)[nH]c(C(=O)Nc2ccc(Cl)c(Cl)c2)c1-c1ccc(Cl)cc1
SK-MEL-5 melanoma
  TGI: > 100 µM
HCT-15 colon
  TGI: > 100 µM
HCC-2998 colon
  TGI: > 100 µM
SF-539 CNS
  TGI: > 100 µM
NCI-H522 lung
  TGI: > 100 µM
COLO 205 colon
  TGI: > 100 µM
NCI-H226 lung
  TGI: > 100 µM
HCT-116 colon
  TGI: > 100 µM
HOP-92 NSCLC
  TGI: > 100 µM
SW-620 colon
  TGI: > 100 µM

## C=C1C(=O)[C@@]23CC1C(O)[C@@H](OC(C)=O)[C@@H]2C1(C)C(OC(C)=O)C[C@@H](OC(C)=O)C(C)(C)[C@@H]1C[C@H]3OC(C)=O (some centres not stated)
SK-MEL-5 melanoma
  GI50: 2.69 µM and 5.05 µg/mL
  TGI: 9.01 µM and 16.5 µg/mL
HCT-15 colon
  GI50: 2.69 µg/mL
  TGI: > 10 µM and 8.61 µg/mL
HCC-2998 colon
  GI50: 17.3 µg/mL
  TGI: > 10 µM and 31.3 µg/mL
SF-539 CNS
  GI50: 1.69 µM and 3.73 µg/mL
  TGI: 3.7 µM and 11.6 µg/mL
NCI-H522 lung
  GI50: 1.31 µM and 0.288 µg/mL
  TGI: 2.64 µM and 1.44 µg/mL
COLO 205 colon
  GI50: 1.69 µM and 1.72 µg/mL
  TGI: 3.15 µM and 3.26 µg/mL
NCI-H226 lung
  GI50: 3.11 µg/mL
  TGI: > 10 µM and 7.24 µg/mL
HCT-116 colon
  GI50: 1.45 µM and 1.46 µg/mL
  TGI: 2.98 µM and 2.89 µg/mL
HOP-92 NSCLC
  GI50: 3.6 µM and 1.95 µg/mL
  TGI: > 10 µM and 3.84 µg/mL
SW-620 colon
  GI50: 1.7 µM and 1.85 µg/mL
  TGI: 3.33 µM and 4.57 µg/mL

## COC(=O)C(C)N(C)C(=O)[C@H](CC(N)=O)N(C)C(=O)[C@@H]1CCCN1C(=O)[C@H](C(C)C)N(C)C(=O)C(C(C)C)N(C)C(=O)[C@@H](NC(=O)OC(C)(C)C)C(C)C (some centres not stated) (Boc-V[ξNMeV][NMeV]P[NMeN][ξNMeA]-OMe)
SK-MEL-5 melanoma
  GI50: > 100 µM
  TGI: 50 µM and > 100 µM
HCT-15 colon
  TGI: > 100 µM
HCC-2998 colon
  GI50: > 100 µM
  TGI: > 100 µM
SF-539 CNS
  GI50: > 100 µM
  TGI: > 100 µM
NCI-H522 lung
  TGI: > 50 µM
COLO 205 colon
  GI50: 34.9 µM
  TGI: > 100 µM
NCI-H226 lung
  GI50: > 100 µM
  TGI: > 100 µM
HCT-116 colon
  GI50: 39.3 µM
  TGI: 50 µM and > 100 µM
HOP-92 NSCLC
  GI50: > 100 µM
  TGI: > 100 µM
SW-620 colon
  GI50: 12.7 µM
  TGI: > 50 µM and 26.7 µM

## CCCN1CCN(c2ccc3nc(-c4ccc5nc(-c6cc(OC)ccc6OC)[nH]c5c4)[nH]c3c2)CC1
SK-MEL-5 melanoma
  GI50: 15.1 µM
  TGI: 34.1 µM
HCT-15 colon
  GI50: 1.74 µM
  TGI: 3.36 µM
HCC-2998 colon
  GI50: 1.8 µM
  TGI: 3.25 µM
SF-539 CNS
  GI50: 14.4 µM
  TGI: 28.7 µM
NCI-H522 lung
  GI50: 1.74 µM
  TGI: 3.68 µM
COLO 205 colon
  GI50: 2.17 µM
  TGI: 4.83 µM
NCI-H226 lung
  GI50: 20.2 µM
  TGI: 46 µM
HCT-116 colon
  GI50: 1.74 µM
  TGI: 3.16 µM
HOP-92 NSCLC
  GI50: 11 µM
  TGI: 27 µM
SW-620 colon
  GI50: 1.86 µM
  TGI: 3.57 µM

## CCN(CC)CCNC(=O)c1nn(C)c(=S)[nH]c1=S
SK-MEL-5 melanoma
  TGI: > 100 µM
HCT-15 colon
  TGI: > 100 µM
HCC-2998 colon
  TGI: > 100 µM
SF-539 CNS
  TGI: > 100 µM
NCI-H522 lung
  TGI: > 100 µM
COLO 205 colon
  TGI: > 100 µM
NCI-H226 lung
  TGI: > 100 µM
HCT-116 colon
  TGI: > 100 µM
HOP-92 NSCLC
  TGI: > 100 µM
SW-620 colon
  TGI: > 100 µM

## O=P([O-])(O)OP(=O)([O-])O.[NH-][C@@H]1CCCC[C@H]1[NH-].[Pt+4]
SK-MEL-5 melanoma
  TGI: > 100 µM and 14.9 µM
HCT-15 colon
  GI50: 11.2 µM and 8.21 µM
  TGI: > 100 µM
HCC-2998 colon
  GI50: 81 µM and 10.6 µM
  TGI: > 100 µM and 64.5 µM
SF-539 CNS
  GI50: 18.6 µM and 8.47 µM
  TGI: > 100 µM
NCI-H522 lung
  GI50: 14.6 µM
  TGI: > 100 µM
COLO 205 colon
  GI50: 6.13 µM and 6.32 µM
  TGI: > 100 µM and 21.5 µM
NCI-H226 lung
  GI50: 32.3 µM and 5.29 µM
  TGI: > 100 µM and 33.6 µM
HCT-116 colon
  GI50: 5.01 µM and 2.61 µM
  TGI: > 100 µM
HOP-92 NSCLC
  GI50: > 100 µM and 12.2 µM
  TGI: > 100 µM
SW-620 colon
  GI50: 4.85 µM and 0.659 µM
  TGI: > 100 µM

## C1CCN(C2OC3C(COC3N3CCCCC3)OC2OC2CCO[C@@H]2N2CCCCC2)CC1 (some centres not stated)
SK-MEL-5 melanoma
  TGI: > 100 µM
HCT-15 colon
  TGI: > 100 µM
HCC-2998 colon
  TGI: > 100 µM
SF-539 CNS
  TGI: 46.8 µM
NCI-H522 lung
  TGI: 25.8 µM
COLO 205 colon
  TGI: > 100 µM
NCI-H226 lung
  TGI: 54.1 µM
HCT-116 colon
  TGI: > 100 µM
HOP-92 NSCLC
  TGI: 47.5 µM
SW-620 colon
  TGI: > 100 µM

## COC(=O)C12C3C4C5C3(C#N)C1C5(C(=O)OC)C42C(=O)N(C(C)C)C(C)C (configuration not stated)
SK-MEL-5 melanoma
  TGI: > 100 µM
HCT-15 colon
  TGI: > 60.4 µM
HCC-2998 colon
  TGI: > 100 µM
SF-539 CNS
  TGI: > 100 µM
NCI-H522 lung
  TGI: > 53.4 µM
COLO 205 colon
  TGI: > 100 µM
NCI-H226 lung
  TGI: > 100 µM
HCT-116 colon
  TGI: > 100 µM
HOP-92 NSCLC
  TGI: > 100 µM
SW-620 colon
  TGI: > 65.3 µM

## CCOC(=O)C1=C(Nc2ccc(Cl)cc2Cl)OC/C1=N\NS(=O)(=O)c1ccc(C)cc1
SK-MEL-5 melanoma
  TGI: > 100 µM
HCT-15 colon
  TGI: > 100 µM
HCC-2998 colon
  TGI: > 100 µM
SF-539 CNS
  TGI: > 100 µM
NCI-H522 lung
  TGI: > 100 µM
COLO 205 colon
  TGI: > 100 µM
NCI-H226 lung
  TGI: > 100 µM
HCT-116 colon
  TGI: > 100 µM
HOP-92 NSCLC
  TGI: > 100 µM
SW-620 colon
  TGI: > 100 µM
